Test results as given in patent publication US4072759A, “Novel benzylalcohol derivatives as antidiabetics and cardiotonics” (Tanabe Seiyaku Co., Ltd., priority 1976, dated 1978).

How the values were obtained:
adrenergic β1-receptor [1] = settings: cited from earlier work
[2] = decrease of blood sugar in mice, oral administration prior to subcutaneous injection of glucose; assay type: in vivo
Protocol: For example, when α-(3,4-dimethoxyphenethylaminomethyl)-2-hydroxybenzylalcohol is administered orally to mice at a dose of 10 mg/kg prior to subcutaneous injection of glucose (1 g/kg), said 2-hydroxybenzylalcohol derivative of the invention decreases the blood sugar level by about 30 %. On the other hand, when examined under the same conditions as above, 100 mg/kg of Phenformin (Chemical name: 1-phenethylbiguanide) are required to induce 13 % decrease in said blood sugar.

adrenergic β1-receptor [3] = test: increase of cardiac contractile force after injection into femoral vein of dogs; assay type: in vivo; settings: injected into femoral vein, 10 μg/kg
[4] = 50 % lethal dose by intravenous injection to mice; settings: mouse, in vivo
Excerpt: Further, the toxicity of the benzylalcohol derivative (I) of the present invention is remarkably low.

adrenergic β1-receptor [5] = test: cardiac contractile activity (general statement)

## COc1cc(CCNCC(O)c2ccc(O)c(O)c2)cc(OC)c1OC (stereo not drawn) [α-(3,4,5-trimethoxyphenethylaminomethyl)-3,4-dihydroxybenzylalcohol]
Adrenergic β1-receptor [1]
  activation of adrenergic β1-receptor: selective activation of adrenergic β1 -receptor

## N=C(N)NC(=N)NCCc1ccccc1 [Phenformin, 1-phenethylbiguanide, reference compound]
[2]; mice, same conditions, 100 mg/kg
  decrease in blood sugar: 13%

## COc1ccc(CCNCC(O)c2ccc(O)c(O)c2)cc1OC (stereo not drawn) [α-(3,4-dimethoxyphenethylaminomethyl)-3,4-dihydroxybenzylalcohol]
Adrenergic β1-receptor [1]
  activation of adrenergic β1-receptor: selective activation of adrenergic β1 -receptor

## COc1ccc(CCNCC(O)c2cccc(O)c2)cc1OC (stereo not drawn) [α-(3,4-dimethoxyphenethylaminomethyl)-3-hydroxybenzylalcohol]
Adrenergic β1-receptor [3]
  increase the cardiac contractile force: 55%

## COc1ccc(CCNCC(O)c2ccc(O)cc2)cc1OC (stereo not drawn) [α-(3,4-dimethoxyphenethylaminomethyl)-4-hydroxybenzylalcohol]
[4]
  LD50: ~198 mg/kg

## COc1ccc(CCNCC(O)c2ccccc2O)cc1OC (stereo not drawn) [α-(3,4-dimethoxyphenethylaminomethyl)-2-hydroxybenzylalcohol]
[2]; mice, oral, 10 mg/kg, prior to subcutaneous glucose (1 g/kg)
  decreases the blood sugar level: about 30%
[2]; mouse, in vivo
  decrease of blood sugar (in words): remarkable decrease of blood sugar
Adrenergic β1-receptor [5]
  cardiac contractile activity: no substantial cardiac contractile activity
